Experimental data: US20180194762A1 (Pharmacyclics LLC, priority 2017, published 2018)

Experiments:
Format in all cases: biochemical
[1] = molecular target: T1, Btk (Homo sapiens, UniProt Q06187); test: Btk in vitro inhibitory activity (one of Method A TR-FRET, Method B electrophoretic mobility shift, Method C radiometric filter binding); conditions: wild-type Btk; read-out: Btk-WT IC50
T1 construct: purified from insect cells as a full-length construct containing a N-terminal 6X-His tag; His6 (N); made in house; host or cells: insect cells (Method C)
T1 sequence (Q06187 whole entry): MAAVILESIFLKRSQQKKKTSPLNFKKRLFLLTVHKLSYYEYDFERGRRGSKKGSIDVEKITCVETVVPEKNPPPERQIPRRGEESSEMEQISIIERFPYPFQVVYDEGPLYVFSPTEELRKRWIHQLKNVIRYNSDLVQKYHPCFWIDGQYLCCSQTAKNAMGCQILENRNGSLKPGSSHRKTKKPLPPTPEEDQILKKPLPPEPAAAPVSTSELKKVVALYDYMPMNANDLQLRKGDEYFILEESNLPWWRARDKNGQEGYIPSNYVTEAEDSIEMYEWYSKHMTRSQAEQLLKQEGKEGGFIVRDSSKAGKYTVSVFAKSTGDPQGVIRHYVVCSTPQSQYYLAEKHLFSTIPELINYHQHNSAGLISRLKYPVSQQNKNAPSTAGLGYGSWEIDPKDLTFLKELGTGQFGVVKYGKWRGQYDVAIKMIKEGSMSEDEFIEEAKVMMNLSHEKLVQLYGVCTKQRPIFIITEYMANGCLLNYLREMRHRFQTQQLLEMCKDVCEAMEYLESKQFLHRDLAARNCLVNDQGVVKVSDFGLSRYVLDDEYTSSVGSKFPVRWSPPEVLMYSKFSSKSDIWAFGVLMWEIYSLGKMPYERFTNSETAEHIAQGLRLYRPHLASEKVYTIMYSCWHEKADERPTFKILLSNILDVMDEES
Procedure, shortened: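 Three alternative formats were used. A radiometric filter-binding read used 8 nM full-length His-BTK with 0.2 mg/mL poly(Glu-Tyr) 4:1 (C); microfluidic separation of 1 μM FAM-peptide by 1 nM BTK gave IC50 from 12-point curves (B); TR-FRET at Km ATP, 0.5 nM Btk, gave Ki(app)-derived IC50 (A).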

[2] = molecular target: T2, TEC (Homo sapiens, UniProt P42680); test: Inhibition of a panel of kinases (in vitro HotSpot kinase assay, 33P-ATP, 1 μM ATP); conditions: HotSpot kinase assay, 1 μM ATP
T2 sequence (P42680 1-631): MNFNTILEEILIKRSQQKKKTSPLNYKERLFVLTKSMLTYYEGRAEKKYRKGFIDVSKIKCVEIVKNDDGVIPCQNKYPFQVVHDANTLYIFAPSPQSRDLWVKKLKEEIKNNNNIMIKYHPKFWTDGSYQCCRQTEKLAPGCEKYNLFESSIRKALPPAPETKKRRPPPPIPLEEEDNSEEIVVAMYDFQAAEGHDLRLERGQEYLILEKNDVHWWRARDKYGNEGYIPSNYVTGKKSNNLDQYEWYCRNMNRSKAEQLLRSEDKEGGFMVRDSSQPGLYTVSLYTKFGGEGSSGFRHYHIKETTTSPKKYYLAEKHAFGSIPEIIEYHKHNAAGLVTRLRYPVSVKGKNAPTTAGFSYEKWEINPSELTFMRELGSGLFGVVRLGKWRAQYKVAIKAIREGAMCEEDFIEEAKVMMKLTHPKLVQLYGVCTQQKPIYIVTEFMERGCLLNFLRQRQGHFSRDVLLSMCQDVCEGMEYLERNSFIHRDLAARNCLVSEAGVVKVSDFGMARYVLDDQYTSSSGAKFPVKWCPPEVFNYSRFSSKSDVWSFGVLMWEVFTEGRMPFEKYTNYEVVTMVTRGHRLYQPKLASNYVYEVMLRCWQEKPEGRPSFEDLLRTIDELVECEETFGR
Procedure, shortened: (§1)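 At 1 μM ATP spiked with 33P-ATP, substrate phosphorylation by the purified enzymes gives the extent of inhibition.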

[3] = molecular target: T3, panel of kinases (Homo sapiens, UniProt P51813); test: Inhibition of a panel of kinases (in vitro HotSpot kinase assay, 33P-ATP, 1 μM ATP), other kinases; conditions: BMX wild-type, read-out: BMX-WT IC50
T3 sequence (P51813 1-675): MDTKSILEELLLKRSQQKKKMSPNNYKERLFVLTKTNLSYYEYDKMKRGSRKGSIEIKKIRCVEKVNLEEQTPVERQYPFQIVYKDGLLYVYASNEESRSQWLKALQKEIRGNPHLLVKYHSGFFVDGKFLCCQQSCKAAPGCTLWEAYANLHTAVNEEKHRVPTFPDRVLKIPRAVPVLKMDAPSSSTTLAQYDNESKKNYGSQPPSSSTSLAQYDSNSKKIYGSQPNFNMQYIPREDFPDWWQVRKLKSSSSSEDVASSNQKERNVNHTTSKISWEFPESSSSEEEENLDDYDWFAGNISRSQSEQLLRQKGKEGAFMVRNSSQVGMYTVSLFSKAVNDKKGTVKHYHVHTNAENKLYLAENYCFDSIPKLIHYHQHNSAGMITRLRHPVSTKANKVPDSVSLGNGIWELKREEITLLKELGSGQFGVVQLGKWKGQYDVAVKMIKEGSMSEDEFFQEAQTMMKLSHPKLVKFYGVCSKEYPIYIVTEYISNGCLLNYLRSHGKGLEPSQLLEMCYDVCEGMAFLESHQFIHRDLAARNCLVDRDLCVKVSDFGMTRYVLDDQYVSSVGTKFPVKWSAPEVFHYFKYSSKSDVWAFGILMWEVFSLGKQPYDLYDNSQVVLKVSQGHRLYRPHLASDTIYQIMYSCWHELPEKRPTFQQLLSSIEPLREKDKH
Procedure, shortened: as §1

| Compound | IC50 [1] [nM] | IC50 [2] [nM] | IC50 [3] [nM] |
| --- | --- | --- | --- |
| C=CC(=O)N[C@@H]1CCN(c2n[nH]c3nccc(-c4ccc(CNC(=O)c5cc(C(C)(C)C#N)on5)c(F)c4)c23)C1 [Example 402, 5-(2-cyanopropan-2-yl)-N-{[2-fluoro-4-(3-{(3R)-3-[(prop-2-noyl)amino]pyrrolidin-1-yl}-1H-pyrazolo[3,4-b]pyridin-4-yl)phenyl]methyl}-1,2-oxazole-3-carboxamide] | 0.222 | 6.48 | 16.9 |
| CC(=O)N[C@@H]1CCN(c2n[nH]c3nccc(-c4ccc(CNC(=O)c5cc(C(C)(C)C#N)on5)c(F)c4)c23)C1 [Example 403, N-[(4-{3-[(3R)-3-acetamidopyrrolidin-1-yl]-1H-pyrazolo[3,4-b]pyridin-4-yl}-2-fluorophenyl)methyl]-5-(2-cyanopropan-2-yl)-1,2-oxazole-3-carboxamide] | 17.3 | 1400 | 1810 |
| C[C@@H](NC(=O)c1cc(C(C)(C)O)on1)c1ccc(-c2ccnc3[nH]nc(N4CCOCC4)c23)cc1 [Example 404, 5-(2-hydroxypropan-2-yl)-N-[(1R)-1-{4-[3-(morpholin-4-yl)-1H-pyrazolo[3,4-b]pyridin-4-yl]phenyl}ethyl]-1,2-oxazole-3-carboxamide] | 18 | 685 | 498 |
| CC(C)c1noc(C(=O)N[C@H](C)c2ccc(-c3ccnc4[nH]nc(N5CCS(=O)(=O)CC5)c34)cc2)n1 [Example 405, N-[(1R)-1-{4-[3-(1,1-dioxo-1λ^6-thiomorpholin-4-yl)-1H-pyrazolo[3,4-b]pyridin-4-yl]phenyl}ethyl]-3-(propan-2-yl)-1,2,4-oxadiazole-5-carboxamide] | 31 | 2380 | 3300 |
| C[C@@H](NC(=O)c1cc(C(C)(C)O)on1)c1ccc(-c2ccnc3[nH]nc(N4CCS(=O)(=O)CC4)c23)cc1 [Example 406, N-[(1R)-1-{4-[3-(1,1-dioxo-1λ^6-thiomorpholin-4-yl)-1H-pyrazolo[3,4-b]pyridin-4-yl]phenyl}ethyl]-5-(2-hydroxypropan-2-yl)-1,2-oxazole-3-carboxamide] | 92.9 | 4740 | 5320 |
| C[C@H]1CC[C@@H](Nc2n[nH]c3nccc(-c4ccc(CNC(=O)c5nc(C(C)(C)C)no5)c(F)c4)c23)CN1C(=O)N1CCOCC1 [Example 409, 3-tert-butyl-N-{[2-fluoro-4-(3-{[(3R,6S)-6-methyl-1-(morpholine-4-carbonyl)piperidin-3-yl]amino}-1H-pyrazolo[3,4-b]pyridin-4-yl)phenyl]methyl}-1,2,4-oxadiazole-5-carboxamide] | 0.546 | 177 | 863 |
| C[C@H]1CC[C@@H](Nc2n[nH]c3nccc(-c4ccc(CNC(=O)c5nc(C(C)(C)C)no5)c(F)c4)c23)CN1C1COC1 [Example 411, 3-tert-butyl-N-{[2-fluoro-4-(3-{[(3R,6S)-6-methyl-1-(oxetan-3-yl)piperidin-3-yl]amino}-1H-pyrazolo[3,4-b]pyridin-4-yl)phenyl]methyl}-1,2,4-oxadiazole-5-carboxamide] | 9.53 | 2270 | 9390 |
| C[C@H]1CC[C@@H](Nc2n[nH]c3nccc(-c4ccc(CNC(=O)c5nc(C(C)(C)C)no5)c(F)c4)c23)CN1C(=O)C1(C)COC1 [Example 419, 3-tert-butyl-N-{[2-fluoro-4-(3-{[(3R,6S)-6-methyl-1-(3-methyloxetane-3-carbonyl)piperidin-3-yl]amino}-1H-pyrazolo[3,4-b]pyridin-4-yl)phenyl]methyl}-1,2,4-oxadiazole-5-carboxamide] | 1.87 | 1920 | 4990 |
| CC(=O)N[C@@H]1CCN(c2n[nH]c3nccc(-c4ccc(CNC(=O)c5ccc(C(C)(C)O)cn5)c(F)c4)c23)C1 [Example 424, N-[(4-{3-[(3R)-3-acetamidopyrrolidin-1-yl]-1H-pyrazolo[3,4-b]pyridin-4-yl}-2-fluorophenyl)methyl]-5-(2-hydroxypropan-2-yl)pyridine-2-carboxamide] | 28.8 | 5440 | 6840 |

The remaining lines, values ahead:

| IC50 [1] [nM] | IC50 [2] [nM] | IC50 [3] [nM] | Compound |
| --- | --- | --- | --- |
| 0.413 | 110 | 874 | CC(=O)N1C[C@H](Nc2n[nH]c3nccc(-c4ccc(CNC(=O)c5nc(C(C)(C)C)no5)c(F)c4)c23)CC[C@@H]1C [Example 408, N-{[4-(3-{[(3R,6S)-1-acetyl-6-methylpiperidin-3-yl]amino}-1H-pyrazolo[3,4-b]pyridin-4-yl)-2-fluorophenyl]methyl}-3-tert-butyl-1,2,4-oxadiazole-5-carboxamide] |
| 1.08 | 542 | 2020 | COC(=O)N1C[C@H](Nc2n[nH]c3nccc(-c4ccc(CNC(=O)c5nc(C(C)(C)C)no5)c(F)c4)c23)CC[C@@H]1C [Example 410, methyl (2S,5R)-5-{[4-(4-{[(3-tert-butyl-1,2,4-oxadiazole-5-carbonyl)amino]methyl}-3-fluorophenyl)-1H-pyrazolo[3,4-b]pyridin-3-yl]amino}-2-methylpiperidine-1-carboxylate] |
| 59.2 | 1040 | 3250 | C[C@H]1CC[C@@H](Nc2n[nH]c3nccc(-c4ccc(CNC(=O)c5ccc(C(C)(C)O)cc5F)c(F)c4)c23)CN1C(=O)N(C)C [Example 414, (2S,5R)-5-{[4-(3-fluoro-4-{[2-fluoro-4-(2-hydroxypropan-2-yl)benzamido]methyl}phenyl)-1H-pyrazolo[3,4-b]pyridin-3-yl]amino}-N,N,2-trimethylpiperidine-1-carboxamide] |
| 28.1 | 2150 | 3000 | C[C@H]1CC[C@@H](Nc2n[nH]c3nccc(-c4ccc(CNC(=O)c5nc6c(s5)CCCC6)c(F)c4)c23)CN1C(=O)N(C)C [Example 415, N-{[4-(3-{[(3R,6S)-1-(dimethylcarbamoyl)-6-methylpiperidin-3-yl]amino}-1H-pyrazolo[3,4-b]pyridin-4-yl)-2-fluorophenyl]methyl}-4,5,6,7-tetrahydro-1,3-benzothiazole-2-carboxamide] |
| 50.6 | 3080 | 3820 | C[C@H]1CC[C@@H](Nc2n[nH]c3nccc(-c4ccc(CNC(=O)c5cc(C(C)(C)O)on5)c(F)c4)c23)CN1C(=O)N(C)C [Example 418, (2S,5R)-5-({4-[3-fluoro-4-({[5-(2-hydroxypropan-2-yl)-1,2-oxazole-3-carbonyl]amino}methyl)phenyl]-1H-pyrazolo[3,4-b]pyridin-3-yl}amino)-N,N,2-trimethylpiperidine-1-carboxamide] |
| 0.379 | 291 | 1240 | C[C@H]1CC[C@@H](Nc2n[nH]c3nccc(-c4ccc(CNC(=O)c5nc(C(C)(C)C)no5)c(F)c4)c23)CN1C(=O)CO [Example 420, 3-tert-butyl-N-{[2-fluoro-4-(3-{[(3R,6S)-1-(hydroxyacetyl)-6-methylpiperidin-3-yl]amino}-1H-pyrazolo[3,4-b]pyridin-4-yl)phenyl]methyl}-1,2,4-oxadiazole-5-carboxamide] |
| 0.915 | 1190 | 3130 | CC(=O)OCC(=O)N1C[C@H](Nc2n[nH]c3nccc(-c4ccc(CNC(=O)c5nc(C(C)(C)C)no5)c(F)c4)c23)CC[C@@H]1C [Example 421, 2-[(2S,5R)-5-{[4-(4-{[(3-tert-butyl-1,2,4-oxadiazole-5-carbonyl)amino]methyl}-3-fluorophenyl)-1H-pyrazolo[3,4-b]pyridin-3-yl]amino}-2-methylpiperidin-1-yl]-2-oxoethyl acetate] |
